From paper PMC9212912 (Structure (London, England : 1993), 2022)

Tests used:
Calu-3 cells = conditions: 0.01 µM
[1] = tested on: native human MYST-family HAT complexes purified via MEAF6 (MYST); test: In vitro acetyltransferase assay, 3H-acetyl incorporation; assay type: biochemical; conditions: 0.5 μg peptide, 3H Ac-CoA, 30 minutes at 30 °C, liquid scintillation
[2] = tested on: native human MYST-family HAT complex purified via BRPF2 (HBO1); test: as above; assay type: biochemical; conditions: 0.5 μg peptide, 3H Ac-CoA, 30 minutes at 30 °C, liquid scintillation
human HAT complex SAGA = test: In vitro acetyltransferase assay; assay type: biochemical
[3] = tested on: human HAT complex NuA4/TIP60; test: In vitro acetyltransferase assay; assay type: biochemical
BRD4 ET domain = BRD4 ET domain (Homo sapiens, UniProt O60885); assay type: binding; conditions: 20 mM Tris pH 7.0, 100 mM NaCl, 3 mM DTT, 10% D2O

Compound: Cc1sc2c(c1C)C(c1ccc(Cl)cc1)=N[C@@H](CC(=O)Nc1ccc(O)cc1)c1nnc(C)n1-2 [OTX015]
- Calu-3 cell viability (Calu-3 cells): 98%

Compound: SARS-CoV-2 E^48−72: peptide, aa 48–72 of SARS-CoV-2 E, acetyltransferase substrate (NVSLVKPSFYVYSRVKNLNSSRVPD; UniProt P0DTC4 48-72, looked up, fragment)
- Acetylation of the peptide by MYST (MEAF6) complexes [1]: able to some extent acetylate
- Acetylation of the peptide by HBO1 (BRPF2) complex [2]: able to some extent acetylate
- Acetylation of the peptide by SAGA (human HAT complex SAGA): undetectable
- Acetylation of the peptide by NuA4/TIP60 [3]: undetectable

Compound: SARS-CoV-2 E^53−72: longer non-acetylated peptide, aa 53–72 of SARS-CoV-2 E (KPSFYVYSRVKNLNSSRVPD)
- Chemical shift perturbations in BRD4 ET upon peptide addition (BRD4 ET domain): did not alter the pattern of CSPs

Compound: SARS-CoV-2 E^57−69: peptide, aa 57–69 of SARS-CoV-2 E (YVYSRVKNLNSSR)
- Chemical shift perturbations in BRD4 ET upon peptide addition (BRD4 ET domain): small CSPs
